From the NIST ThermoML archive (doi:10.1021/je300134c)

Assay: xn = mol fraction of the nth substance listed
Settings: 101 kPa, Liquid; for speed of sound: Sing-around technique in a fixed-path interferometer; for mass density: Vibrating tube method

CCCCn1cc[n+](C)c1.O=S(=O)([O-])C(F)(F)F [1-butyl-3-methylimidazolium trifluoromethanesulfonate] + O
Settings | mass density [kg/m3] | speed of sound [m/s]
288.15 K, x1 = 0.05002 | 1122.78 | 1539.5
288.15 K, x1 = 0.09974 | 1178.77 | 1524.8
288.15 K, x1 = 0.1499 | 1211.09 | 1510.4
288.15 K, x1 = 0.3013 | 1257.47 | 1474.6
288.15 K, x1 = 0.3994 | 1272.13 | 1459
288.15 K, x1 = 0.4973 | 1281.71 | 1447.6
288.15 K, x1 = 0.5999 | 1289.22 | 1438
288.15 K, x1 = 0.6988 | 1294.59 | 1431.6
288.15 K, x1 = 0.8953 | 1302.01 | 1420.5
288.15 K, x1 = 1 | 1304.56 | 1416
298.15 K, x1 = 0.05002 | 1116.95 | 1538.2
298.15 K, x1 = 0.09974 | 1171.65 | 1514.3
298.15 K, x1 = 0.1499 | 1203.38 | 1494.8
298.15 K, x1 = 0.3013 | 1249.32 | 1453.8
298.15 K, x1 = 0.3994 | 1263.98 | 1437.3
298.15 K, x1 = 0.4973 | 1273.59 | 1425.5
298.15 K, x1 = 0.5999 | 1281.16 | 1415.7
298.15 K, x1 = 0.6988 | 1286.57 | 1408.8
298.15 K, x1 = 0.8953 | 1294.08 | 1397.7
298.15 K, x1 = 1 | 1296.67 | 1393
308.15 K, x1 = 0.05002 | 1110.67 | 1533.5
308.15 K, x1 = 0.09974 | 1164.25 | 1501.6
308.15 K, x1 = 0.1499 | 1195.48 | 1477.9
308.15 K, x1 = 0.3013 | 1241.1 | 1432.7
308.15 K, x1 = 0.3994 | 1255.79 | 1415.6
308.15 K, x1 = 0.4973 | 1265.46 | 1403.5
308.15 K, x1 = 0.5999 | 1273.1 | 1393.6
308.15 K, x1 = 0.6988 | 1278.56 | 1386.5
308.15 K, x1 = 0.8953 | 1286.15 | 1375.5
308.15 K, x1 = 1 | 1288.78 | 1370.7
318.15 K, x1 = 0.05002 | 1103.96 | 1525.8
318.15 K, x1 = 0.09974 | 1156.58 | 1486.9
318.15 K, x1 = 0.1499 | 1187.4 | 1459.8
318.15 K, x1 = 0.3013 | 1232.82 | 1411.4
318.15 K, x1 = 0.3994 | 1247.58 | 1393.8
318.15 K, x1 = 0.4973 | 1257.33 | 1381.7
318.15 K, x1 = 0.5999 | 1265.05 | 1371.7
318.15 K, x1 = 0.6988 | 1270.58 | 1364.7
318.15 K, x1 = 0.8953 | 1278.27 | 1353.8
318.15 K, x1 = 1 | 1280.95 | 1349
328.15 K, x1 = 0.05002 | 1096.85 | 1515.2
328.15 K, x1 = 0.09974 | 1148.65 | 1470.6
328.15 K, x1 = 0.1499 | 1179.14 | 1440.5
328.15 K, x1 = 0.3013 | 1224.48 | 1389.8
328.15 K, x1 = 0.3994 | 1239.35 | 1372.1
328.15 K, x1 = 0.4973 | 1249.21 | 1359.9
328.15 K, x1 = 0.5999 | 1257.03 | 1350.1
328.15 K, x1 = 0.6988 | 1262.64 | 1343.2
328.15 K, x1 = 0.8953 | 1270.44 | 1332.5
328.15 K, x1 = 1 | 1273.16 | 1327.8
338.15 K, x1 = 0.05002 | 1089.38 | 1502.3
338.15 K, x1 = 0.09974 | 1140.47 | 1452.7
338.15 K, x1 = 0.1499 | 1170.71 | 1420.3
338.15 K, x1 = 0.3013 | 1216.08 | 1368.1
338.15 K, x1 = 0.3994 | 1231.09 | 1350.4
338.15 K, x1 = 0.4973 | 1241.08 | 1338.3
338.15 K, x1 = 0.5999 | 1249.02 | 1328.7
338.15 K, x1 = 0.6988 | 1254.72 | 1321.6
338.15 K, x1 = 0.8953 | 1262.66 | 1311.2
338.15 K, x1 = 1 | 1265.44 | 1307
